In the supplement of paper PMC10331698:
± gives the standard deviation of the averaged measurements.

Assays:
Test in all cases: level (log10 ratio to DMSO vehicle control); higher = higher biomarker level / cell amount than vehicle control
Details in all cases: in DMSO
[1] = compound: O=C(O)C(F)(F)C(F)(F)C(F)(F)C(F)(F)C(F)(F)C(F)(F)C(F)(F)C(F)(F)Cl [9-Chloro-perfluorononanoic acid]
Description: (§1)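 BioMAP Diversity Plus panel of 12 human primary cell co-culture systems (3C, 4H, LPS, SAg, BT, BF4T, BE3C, CASM3C, HDF3CGF, KF3CT, MyoF, Mphg). Compounds were added 1 h before stimulation and left for 24 h (MyoF 48 h; BT 72 h for soluble read-outs or 6 d for IgG). Biomarkers were read by ELISA, cytotoxicity by SRB, PBMC viability and proliferation by Alamar Blue. Each well value was divided by the mean of 8 DMSO control wells on the same plate and log10 transformed; duplicate blinded samples were tested at 4 concentrations.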

[2] = compound: O=S(=O)(O)C(F)(F)C(F)(F)C(F)(F)C(F)(F)C(F)(F)C(F)(F)C(F)(F)C(F)(F)F [Perfluorooctanesulfonic acid]
Description: as §1

[3] = compound: FC(F)(F)C(F)(F)C(F)(F)C(F)(F)C(F)(F)C(F)(F)C(F)(F)CCI [1-Iodo-1H,1H,2H,2H-perfluorononane]
Description: as §1

[4] = compound: C=CC(=O)OCCC(F)(F)C(F)(F)C(F)(F)C(F)(F)F [2-(Perfluorobutyl)ethyl acrylate]
Description: as §1

[5] = compound: O=C(O)CCC(F)(F)C(F)(F)C(F)(F)C(F)(F)C(F)(F)F [2H,2H,3H,3H-Perfluorooctanoic acid]
Description: as §1

[6] = compound: O=C(O)CCC(F)(F)C(F)(F)C(F)(F)F [3:3 Fluorotelomer carboxylic acid]
Description: as §1

[7] = compound: O=S(=O)(O)C(F)(F)C(F)(F)C(F)(F)C(F)(F)F [Perfluorobutanesulfonic acid]
Description: as §1

Test System | level (log10) ([1]; 6700 nM) | level (log10) ([1]; 20000 nM) | level (log10) ([2]; 6700 nM) | level (log10) ([2]; 20000 nM) | level (log10) ([2]; 60000 nM) | level (log10) ([3]; 6700 nM) | level (log10) ([3]; 20000 nM) | level (log10) ([4]; 6700 nM) | level (log10) ([4]; 20000 nM) | level (log10) ([4]; 60000 nM) | level (log10) ([5]; 6700 nM) | level (log10) ([5]; 20000 nM) | level (log10) ([5]; 60000 nM) | level (log10) ([6]; 6700 nM) | level (log10) ([6]; 20000 nM) | level (log10) ([6]; 60000 nM) | level (log10) ([7]; 6700 nM) | level (log10) ([7]; 20000 nM) | level (log10) ([7]; 60000 nM)
BE3C:CD54/ICAM-1 | 0.0145 ± 0.018 | -0.033 ± 0.014 | 0.016 ± 0.011 | 0.0665 ± 0.00071 | -0.263 ± 0.21 | 0.0115 ± 0.005 | -0.009 ± 0.016 | -0.0045 ± 0.0035 | -0.0175 ± 0.0064 | -0.037 ± 0.03 | -0.0065 ± 0.0078 | -0.0085 ± 0.005 | -0.0155 ± 0.011 | -0.009 ± 0.0042 | 0.017 ± 0.02 | 0.002 ± 0.0057 | -0.0185 ± 0.0021 | -0.009 ± 0.0028 | -0.021 ± 0.0057
BE3C:CD87/uPAR | 0.0445 ± 0.0021 | -0.0005 ± 0.039 | 0.0465 ± 0.005 | 0.081 ± 0.045 | 0.0355 ± 0.0021 | 0.0115 ± 0.018 | 0.016 ± 0.0014 | 0.014 ± 0.021 | 0.0125 ± 0.025 | -0.018 ± 0.0071 | -0.0085 ± 0.0064 | 0.005 ± 0.033 | 0.0255 ± 0.037 | 0.0045 ± 0.016 | -0.0035 ± 0.011 | 0.0115 ± 0.019 | -0.035 ± 0.0028 | -0.044 ± 0.016 | -0.037 ± 0.027
BE3C:CXCL8/IL-8 | 0.0025 ± 0.025 | -0.102 ± 0.049 | -0.0875 ± 0.0035 | -0.136 ± 0.0021 | -0.348 ± 0.25 | 0.018 ± 0.11 | 0.0505 ± 0.12 | 0.006 ± 0.025 | -0.0165 ± 0.06 | -0.016 ± 0.095 | 0.033 ± 0.042 | 0.004 ± 0.041 | 0.0035 ± 0.036 | -0.0085 ± 0.036 | 0.0075 ± 0.005 | -0.0095 ± 0.0092 | 0.0075 ± 0.035 | 0.013 ± 0.028 | 0.0005 ± 0.0092
BE3C:CXCL9/MIG | -0.0015 ± 0.00071 | -0.047 | 0.0105 ± 0.0078 | -0.011 ± 0.021 | -0.513 ± 0.32 | -0.0085 ± 0.0035 | -0.0015 ± 0.0092 | 0.0005 ± 0.005 | -0.0085 ± 0.005 | 0.003 ± 0.0057 | -0.003 | -0.008 ± 0.0057 | 0.0005 ± 0.0035 | 0.006 ± 0.0099 | 0.0055 ± 0.00071 | 0.01 ± 0.0014 | 0.01 ± 0.034 | 0.0025 ± 0.023 | 0.013 ± 0.0057
BE3C:CXCL10/IP-10 | -0.0545 ± 0.015 | -0.462 ± 0.011 | -0.0365 ± 0.013 | -0.478 ± 0.054 | -0.7725 ± 0.0035 | 0 ± 0.016 | 0.0025 ± 0.011 | -0.0025 ± 0.00071 | -0.007 ± 0.0057 | -0.012 ± 0.013 | -0.009 ± 0.0042 | -0.006 ± 0.0028 | -0.0075 ± 0.005 | -0.0015 ± 0.005 | 0.0045 ± 0.015 | 0.013 ± 0.0099 | 0.009 ± 0.038 | -0.0015 ± 0.028 | 0.0005 ± 0.018
BE3C:CXCL11/I-TAC | 0.0515 ± 0.005 | -0.161 ± 0.032 | -0.0085 ± 0.00071 | -0.0735 ± 0.028 | -0.555 ± 0.15 | -0.004 ± 0.0057 | -0.001 ± 0.0042 | 0.0035 ± 0.00071 | -0.0065 ± 0.012 | -0.018 ± 0.0028 | 0.0305 ± 0.016 | 0.0535 ± 0.012 | 0.036 ± 0.014 | -0.004 ± 0.021 | 0.0045 ± 0.005 | 0.0005 ± 0.0035 | 0.0115 ± 0.012 | 0.0065 ± 0.00071 | 0.007 ± 0.0071
BE3C:EGFR | -0.004 ± 0.0014 | -0.101 ± 0.015 | 0.0025 ± 0.023 | -0.125 ± 0.059 | -0.159 ± 0.12 | 0.005 ± 0.014 | -0.008 ± 0.02 | -0.003 | -0.0065 ± 0.00071 | -0.014 ± 0.023 | -0.004 ± 0.0042 | -0.0225 ± 0.029 | -0.008 ± 0.0099 | 0.006 ± 0.0057 | 0.0105 ± 0.013 | -0.0015 ± 0.005 | -0.0045 ± 0.021 | 0 ± 0.018 | 0.0005 ± 0.0092
BE3C:HLA-DR | -0.0575 ± 0.025 | -0.445 ± 0.052 | -0.0155 ± 0.016 | -0.189 ± 0.014 | -0.409 ± 0.1 | -0.0065 ± 0.0035 | -0.0225 ± 0.0092 | 0.0145 ± 0.022 | -0.02 ± 0.0071 | -0.0575 ± 0.005 | 0 ± 0.0042 | -0.009 ± 0.0071 | -0.0175 ± 0.012 | -0.0345 ± 0.035 | -0.018 ± 0.011 | -0.0225 ± 0.005 | -0.003 | 0 ± 0.0028 | 0.0035 ± 0.018
BE3C:IL-1alpha | 0.023 ± 0.017 | -0.0765 ± 0.026 | 0.0315 ± 0.023 | 0.0055 ± 0.016 | -0.237 ± 0.2 | -0.0075 ± 0.0078 | 0.0075 ± 0.026 | -0.0035 ± 0.022 | -0.0305 ± 0.03 | -0.012 ± 0.0057 | -0.0075 ± 0.0064 | -0.0125 ± 0.019 | -0.005 | 0.0135 ± 0.037 | 0.0255 ± 0.039 | 0.0155 ± 0.035 | -0.0175 ± 0.012 | -0.013 ± 0.0085 | -0.0075 ± 0.012
BF4T:CCL2/MCP-1 | -0.034 ± 0.028 | -0.0785 ± 0.044 | 0.0145 ± 0.005 | 0.0095 ± 0.035 | -0.0565 ± 0.21 | -0.0135 ± 0.015 | -0.0245 ± 0.066 | -0.009 ± 0.013 | -0.01 ± 0.0028 | -0.0325 ± 0.029 | 0.0285 ± 0.015 | -0.011 ± 0.031 | -0.0235 ± 0.096 | -0.0025 ± 0.0021 | -0.018 ± 0.0014 | -0.01 ± 0.041 | 0.028 ± 0.0014 | 0.026 ± 0.024 | 0.033 ± 0.018
BF4T:CCL26/Eotaxin-3 | -0.144 ± 0.016 | -0.27 ± 0.014 | -0.0595 ± 0.026 | -0.155 ± 0.0085 | -0.192 ± 0.097 | -0.0075 ± 0.0021 | -0.061 ± 0.0099 | -0.0005 ± 0.018 | -0.0295 ± 0.023 | -0.019 ± 0.02 | -0.0305 ± 0.013 | -0.0615 ± 0.029 | -0.0695 ± 0.11 | -0.015 ± 0.018 | -0.0095 ± 0.026 | 0.009 ± 0.018 | -0.057 ± 0.09 | -0.014 ± 0.035 | -0.003 ± 0.047
BF4T:CD54/ICAM-1 | -0.0085 ± 0.0021 | -0.0355 ± 0.0064 | -0.0065 ± 0.019 | -0.0115 ± 0.028 | -0.018 ± 0.014 | -0.007 ± 0.018 | -0.0345 ± 0.0064 | -0.0085 ± 0.0078 | -0.013 ± 0.0099 | -0.064 ± 0.014 | -0.0175 ± 0.018 | -0.0115 ± 0.0021 | -0.0075 ± 0.0092 | -0.0075 ± 0.0092 | 0.007 | -0.008 ± 0.0071 | -0.027 ± 0.0085 | -0.002 ± 0.0014 | -0.0115 ± 0.019
BF4T:CD90 | -0.034 ± 0.013 | -0.0285 ± 0.005 | -0.0015 ± 0.011 | 0.005 ± 0.0014 | 0.0135 ± 0.0021 | -0.0245 ± 0.021 | -0.0345 ± 0.0021 | -0.017 ± 0.0028 | -0.025 ± 0.0099 | -0.016 ± 0.0071 | -0.018 ± 0.011 | -0.019 ± 0.0014 | -0.02 ± 0.02 | -0.0025 ± 0.005 | -0.009 ± 0.0014 | -0.0085 ± 0.013 | -0.007 ± 0.0042 | -0.008 ± 0.021 | -0.015 ± 0.011
BF4T:CD106/VCAM-1 | -0.0485 ± 0.005 | -0.141 ± 0.011 | -0.0065 ± 0.0021 | -0.0155 ± 0.012 | -0.016 ± 0.03 | -0.027 ± 0.0085 | -0.061 ± 0.014 | 0.005 ± 0.0042 | -0.033 ± 0.025 | -0.08 ± 0.0028 | -0.011 ± 0.024 | -0.03 ± 0.0057 | -0.007 ± 0.093 | -0.012 ± 0.041 | 0.0075 ± 0.0078 | 0.0205 ± 0.018 | -0.0175 ± 0.0078 | -0.0325 ± 0.046 | -0.021 ± 0.0028
